Broadly, the melting point is the temperature of the solid-liquid transition. One may read the IC50 as the midpoint of a concentration-inhibition curve. Read a high IC50 as lower potency.

Each structure is given as a SMILES string.

This note sets out measurements from paper PMC8623418, “Novel Multitarget Hydroxamic Acids with a Natural Origin CAP Group against Alzheimer’s Disease: Synthesis, Docking and Biological Evaluation” (Pharmaceutics, 2021).

Data set [1] has as its system 5xFAD transgenic mice. Nature of the data set: Ex vivo total glutathione in mouse brain homogenate. The following applies: post-mortem, versus 5xFAD mice. Here is the method: At the end of the in vivo series of experiments, the animals’ brains were sampled for further measurement of the lipid peroxidation level, as well as glutathione content in mouse brain homogenates. A synaptosomal p2 fraction containing mitochondria was also isolated to investigate the bioenergetic characteristics of organelles.
The performance of the glutathione system of the cell’s own antioxidant defense was evaluated using a commercially available kit (Glutathione Assay Kit, Sigma Aldrich, Saint Louis, MO, USA) in accordance with the protocol provided by the manufacturer. The total glutathione level was determined by spectrophotometric measurement at a wavelength of 412 nm by the amount of 2-nitro-5-thiobenzoic acid, a product formed during the reduction of GSH 5,5′-dithiobis-(2-nitrobenzoic acid).
The glutathione content was estimated using the method based on measurement of the absorption of a colored compound formed during the colorimetric reaction of DTNB with SH groups of glutathione. […] Therefore, the level of lipid peroxidation of mouse brain homogenates was also measured by its final product, malondialdehyde. […]

The test system of data set [2] is HEK 293 cells. Kind of data set: MTT cell viability, HEK 293. The data set is classed as cell-based. The following applies: Homo sapiens, HEK293; HEK-293, MTT test. Here is the method:
(§1) The effect of the hydroxamic acids on the viability of cells obtained from human embryonic kidneys, HEK 293, as well as the native form of human neuroblastoma, SH-SY5Y, was evaluated in the MTT test. Using a multifunctional flatbed analyzer, Cytation™3 (BioTek Instruments, Inc., Winooski, VT, USA), the optical density was determined at a wavelength of 530 nm. Based on the dose-dependent curves, the concentration values leading to 50% inhibition of cell population growth (IC50) were calculated.
(§2) Due to the fact that most compounds of the class of hydroxamic acids have high cytotoxic activity and are mainly used as anticancer drugs, their use as neuroprotective drugs is limited. Since the goal of our work was to search for agents for the pharmacological correction of neurodegenerative diseases, a necessary part of the biological activity study of the synthesized hydroxamic acids was to determine their effect on the survival of cell cultures. In our work, we used neuron-like neuroblastoma cells SH-SY5Y and a healthy cell line isolated from the human embryonic kidney, HEK 293.
In general terms: Tetrazolium dyes change colour on reduction, which living cells bring about.

Data set [3] concerns SH-SY5Y cells. Nature of the data set: MTT cell viability, SH-SY5Y. The data set is classed as cell-based. The conditions noted are these: Homo sapiens, MTT test. Here is the method: as §1, §2
In data set [4] the test system is 5xFAD transgenic mice. Nature of the data set: Morris Water Maze Test in 5xFAD mice. The data set is classed as in vivo. The following applies: for Mean latency time to hidden platform, first training day / Mean latency time to hidden platform, fourth training day: 15 mg/kg i.p. for 20 days, mean ± SEM; for Mean latency time to hidden platform, first training day: day 1; for Mean latency time to hidden platform, fourth training day: day 4. Here is the method: All animal procedures were approved by the Animal Care and Use Committee of IPAC RAS. For in vivo studies, 11-month-old male mice of the 5xFAD line (Tg(APPSwFlLon,PSEN1*M146L*L286V) 6799Vas/J) were used. The animals were housed in cages with free access to water and food in a room with a 12 h/12 h light–dark cycle, at a temperature of 23 ± 1 °C and humidity of 50 ± 5%. Before the series of experiments, animals were randomly divided into four groups (n = 8 per group): (1) wild-type group (C57BL6/j mouse line); (2) 5xFAD group; (3) 5xFAD + 15 group; and (4) 5xFAD + 25 group. Both compounds 15 and 25 were dissolved in saline solution and DMSO (10%) immediately before use and intraperitoneally administered to animals for 20 days at a dose of 15 mg/kg body weight for experiments. In the control group, the vehicle solution (saline and DMSO (10%), intraperitoneal) was administered with the same time schedule. The Morris Water Maze Test was performed based on the Morris paradigm, 1985, modified. This test allowed us to evaluate spatial learning and memory formation in mice. The experimental apparatus consisted of a circular pool (diameter, 150 cm; height, 60 cm; OpenScience, Russia) containing water at 22 ± 1 °C. The lighting conditions were as follows: dark side of the pool was 50 lx; bright side was 75 lx. The pool was equally divided into quadrants. A platform (diameter, 10 cm) was positioned inside the reservoir, placed 1 cm below the water surface in the target quadrant of the maze. The platform and pool were white with anti-glare coating, which, together with shadowless lamp lighting, created the effect of an invisible platform that was hidden under the water. As visual cues, we used 4 figures (OpenScience, Moscow, Russia) fixed on the racks and located at the pool sides. The test is based on two phases: the acquisition phase (training days) and the retention phase (probe trial) (Figure 7A). Initially, the training session was performed, during which each animal was placed into the water facing the pool wall. After placing, each animal was given 60 s to find and mount onto the hidden platform. […] Each mouse received training sessions, and the test was repeated four times for four consecutive days in acquisition training (sum 16 trials for training). All 4 start positions for each day (north, south, east, west) were deliberately randomized. The probe trial was performed on the 5th day after the training phase: there were no platform and the mice were given 90 s for swimming. The criteria for the effectiveness of learning and memory formation were the time spent in the target and wrong quadrants, the latency period, and the number of entries to the platform area.

The subject of data set [5] is β-amyloid 1–40. Nature of the data set: β-amyloid 1–40 aggregation, Thioflavin T fluorescence. The data set is classed as biochemical. The conditions noted are these: 100 μM, 72 h incubation. Here is the method:
The effect of the studied compounds on the aggregation of β-amyloid (1–40/1–42) was analyzed using the method of recording Thioflavin T fluorescence (10 µM) for 72 h at 37 °C. The fluorescence signal was measured using a multifunctional flatbed analyzer, the Cytation ™ 3 (BioTek Instruments, Inc., Winooski, VT, USA), at λex = 450 nm, λem = 480 nm.
The effect of hydroxamic acids on the stage of aggregation of the pathological β-amyloid peptide was investigated for 72 h using two model systems—fragments Aβ1–40 and Aβ1–42. The fluorophore Thioflavin T was used as an indicator of the ongoing fibrillation process, the interaction of which with proteins in the state of amyloid fibrils leads to an increase in the fluorescence signal.

Setting [6] is: 5th day, versus untreated 5xFAD.

As to `O=C(CCCCCCC(=O)NC1C2CC3CC(C2)CC1C3)NO` (stereo not drawn) [compound 15, N^1-(Adamant-2-yl)-N^8-Hydroxyoctanediamide], the melting point worked out at 133.6 °C. Also, the “Total glutathione content in brain” value in data set [1] is “tended to recover this parameter”. The compound also gave a 50% inhibitory concentration (IC50) in data set [2] of over 100 µM. Further, the concentration for half-maximal inhibition (IC50) in data set [3] was determined as 47.6 ± 7.19 µM. Further, in data set [4], the “Mean latency time to hidden platform, first training day” value is 53.76 ± 2.79 s and the “Mean latency time to hidden platform, fourth training day” value is recorded as 34.28 ± 4.32 s. Besides, in data set [4] (setting [6]), the “Probe trial: entries to the platform zone” value was “increased entries to the platform” and the “Probe trial: latency for entering the platform zone” value is recorded as “significantly reduced the latency for entering the platform zone”. Besides, in data set [4] (training phase, 15 mg/kg i.p.), the “Platform search strategies (egocentric to allocentric navigation)” value was “normalization of this situation and the successful formation of the allocentric cognitive map”. Also, the “Effect on β-amyloid 1–40 aggregation” value in data set [5] is recorded as “noticeable fibrillation inhibition”.

For `O=C(/C=C/c1ccc(C(=O)NO)cc1)NC1C2CC3CC(C2)CC1C3` (stereo not drawn) [compound 25, 4-((E)-3-((-Adamantan-2-yl)amino)-3-Oxoprop-1-en-1-yl)-N-Hydroxybenzamide], the concentration for half-maximal inhibition (IC50) in data set [2] was over 100 µM. In addition, half-maximal inhibition in data set [3] (IC50) was put at 59.51 ± 0.42 µM. In addition, in data set [4], the “Mean latency time to hidden platform, first training day” value is 53.46 ± 2.75 s and the “Mean latency time to hidden platform, fourth training day” value is given as 38.63 ± 3.01 s. In data set [4] (setting [6]), the “Probe trial: entries to the platform zone” value is listed as “improvement in these spatial memory parameters was also observed”, the “Probe trial: latency for entering the platform zone” value is on record as “improvement in these spatial memory parameters was also observed” and the “Probe trial: time spent in the wrong quadrant” value is recorded as “significant differences were found in the time spent in the wrong quadrant”. For the same compound, the “Effect on β-amyloid 1–40 aggregation” value in data set [5] is “noticeable fibrillation inhibition”.
